According to ChEMBL document CHEMBL6182861, “Structural modification of heptamethine indocyanine dyes with improved aqueous solubility and stability for photothermal therapy” (Eur J Med Chem, 2025):
The source made the active and inactive calls. The calls are words filed in the database; no cut-off is given here.

How the values were obtained:
4T1 [1] = experiment: Induction of ROS generation in mouse 4T1 cells at 3.12 uM incubated for 4 hrs followed by exposure to laser irradiation of 808 nm for 2 mins by flow cytometry; type: functional, cell-based; conditions: time 242.0 min
Mitochondrial membrane [2] = experiment: Inhibition of mitochondrial membrane potential in mouse 4T1 cells assessed as green fluorescence at 3.12 uM preincubated for 4 hrs followed by exposure to laser irradiation of 808 nm for 2 mins and subsequent incubation for 20 hrs by JC-1 dye based analysis; type: cell membranes; conditions: time 1442.0 min
HepG2 [3] = experiment: Cytotoxicity against human HepG2 cells under dark condition at 3.12 uM incubated for 24 hrs by MTT assay; type: functional, cell-based
4T1 [4] = experiment: Cytotoxicity against mouse 4T1 cells under dark condition at 3.12 uM incubated for 24 hrs by MTT assay; type: functional, cell-based
[5] = Photosensitizing property of compound assessed as generation of singlet-state oxygen by ESR spectrometry; type: functional
4T1 [6] = experiment: Induction of ROS generation in mouse 4T1 cells at 3.12 uM incubated for 4 hrs followed by exposure to laser irradiation of 808 nm for 2 mins by DCFH-DA probe based CLSM; type: functional, cell-based; conditions: time 242.0 min
Mitochondrial membrane [7] = experiment: Inhibition of mitochondrial membrane potential in human HepG2 cells at 3.12 uM preincubated for 4 hrs followed by exposure to laser irradiation of 808 nm for 2 mins and subsequent incubation for 20 hrs by Rh123 probe based CLSM; type: cell membranes; conditions: time 1442.0 min
[8] = Photosensitizing property of compound assessed as generation of singlet-state oxygen at 10 uM exposed to laser irradiation of 808 nm for 2 mins by SOSG probe based analysis; type: functional
[9] = Drug uptake in human HepG2 cells assessed as increase in fluorescence intensity at 3.12 uM incubated for 4 hrs by flow cytometry; type: ADME, cell-based; conditions: hepg2, 4 h
[10] = Drug uptake in mouse 4T1 cells assessed as increase in fluorescence intensity at 3.12 uM incubated for 4 hrs by CLSM; type: ADME, cell-based; conditions: 4t1, 4 h
Mitochondrial membrane [11] = experiment: Inhibition of mitochondrial membrane potential in human HepG2 cells at 3.12 uM preincubated for 4 hrs followed by exposure to laser irradiation of 808 nm for 2 mins and subsequent incubation for 20 hrs by flow cytometry; type: cell membranes; conditions: time 1442.0 min
[12] = Drug uptake in human HepG2 cells assessed as increase in fluorescence intensity at 3.12 uM incubated for 4 hrs by CLSM; type: ADME, cell-based; conditions: hepg2, 4 h
Mitochondrial membrane [13] = experiment: Inhibition of mitochondrial membrane potential in mouse 4T1 cells at 3.12 uM preincubated for 4 hrs followed by exposure to laser irradiation of 808 nm for 2 mins and subsequent incubation for 20 hrs by Rh123 probe based CLSM; type: cell membranes; conditions: time 1442.0 min
HepG2 [14] = experiment: Induction of ROS generation in human HepG2 cells at 3.12 uM incubated for 4 hrs followed by exposure to laser irradiation of 808 nm for 2 mins by DCFH-DA probe based CLSM; type: functional, cell-based; conditions: time 242.0 min
Mitochondrial membrane [15] = experiment: Inhibition of mitochondrial membrane potential in mouse 4T1 cells at 3.12 uM incubated for 24 hrs by flow cytometry; type: cell membranes
Mitochondrial membrane [16] = experiment: Inhibition of mitochondrial membrane potential in mouse 4T1 cells at 3.12 uM incubated for 24 hrs by Rh123 probe based CLSM; type: cell membranes
[17] = Photothermal stability of compound at 60 degreeC at 20 uM exposed to laser irradiation of 808 nm for 2.5 mins; type: physicochemical
4T1 [18] = experiment: Induction of apoptosis in mouse 4T1 cells at 3.12 uM incubated for 4 hrs followed by exposure to laser irradiation of 808 nm for 2 mins by Annexin V-FITC/PI staining based flow cytometry; type: functional, cell-based; conditions: time 242.0 min
Mitochondrial membrane [19] = experiment: Inhibition of mitochondrial membrane potential in human HepG2 cells at 3.12 uM incubated for 24 hrs by Rh123 probe based CLSM; type: cell membranes
Mitochondrial membrane [20] = experiment: Inhibition of mitochondrial membrane potential in human HepG2 cells assessed as green fluorescence at 3.12 uM preincubated for 4 hrs followed by exposure to laser irradiation of 808 nm for 2 mins and subsequent incubation for 20 hrs by JC-1 dye based analysis; type: cell membranes; conditions: time 1442.0 min
HepG2 [21] = experiment: Induction of apoptosis in human HepG2 cells at 3.12 uM incubated for 4 hrs followed by exposure to laser irradiation of 808 nm for 2 mins by Annexin V-FITC/PI staining based flow cytometry; type: functional, cell-based; conditions: time 242.0 min
Mitochondrial membrane [22] = experiment: Inhibition of mitochondrial membrane potential in human HepG2 cells at 3.12 uM incubated for 24 hrs by flow cytometry; type: cell membranes
[23] = Drug uptake in mouse 4T1 cells assessed as increase in fluorescence intensity at 3.12 uM incubated for 4 hrs by flow cytometry; type: ADME, cell-based; conditions: 4t1, 4 h
HepG2 [24] = experiment: Induction of ROS generation in human HepG2 cells at 3.12 uM incubated for 4 hrs followed by exposure to laser irradiation of 808 nm for 2 mins by flow cytometry; type: functional, cell-based; conditions: time 242.0 min
Mitochondrial membrane [25] = experiment: Inhibition of mitochondrial membrane potential in mouse 4T1 cells at 3.12 uM preincubated for 4 hrs followed by exposure to laser irradiation of 808 nm for 2 mins and subsequent incubation for 20 hrs by flow cytometry; type: cell membranes; conditions: time 1442.0 min
[26] = Photothermal property of compound assessed as increase in photothermal conversion efficiency at 20 uM exposed to laser irradiation of 808 nm for 2 mins; type: functional
[27] = Aqueous solubility of compound by absorbance based assay; type: physicochemical; conditions: buffer
4T1 [28] = experiment: Photothermal cytotoxicity against mouse 4T1 cells up to 25 uM preincubated for 4 hrs followed by exposure to laser irradiation of 808 nm for 2 mins and subsequent incubation for 20 hrs by MTT assay; type: functional, cell-based
HepG2 [29] = experiment: Photothermal cytotoxicity against human HepG2 cells up to 25 uM preincubated for 4 hrs followed by exposure to laser irradiation of 808 nm for 2 mins and subsequent incubation for 20 hrs by MTT assay; type: functional, cell-based; conditions: time 1442.0 min

Row | Compound | Drug uptake [9] | Drug uptake [10] | Drug uptake [12] | Stability [17] | Drug uptake [23] | Activity (4T1 [1]) | Activity [5] | Activity (4T1 [6]) | inhibition (Mitochondrial membrane [7]) | Activity [8] | inhibition (Mitochondrial membrane [11]) | inhibition (Mitochondrial membrane [13]) | Activity (HepG2 [14]) | inhibition (Mitochondrial membrane [15]) | inhibition (Mitochondrial membrane [16]) | Activity (4T1 [18]) | inhibition (Mitochondrial membrane [19]) | Activity (HepG2 [21]) | inhibition (Mitochondrial membrane [22]) | Activity (HepG2 [24]) | other results
1 | COCCOCCOCCN1/C(=C/C=C/C(C#N)=C/C=C/C2=[N+](CCOCCOCCOC)c3ccccc3C2(C)C)C(C)(C)c2ccccc21.[I-] | Active | Active | Active | Stable | Active | Active | Active | Active | Active; Significant Inhibition Was Observed | Active | Active; Significant Inhibition Was Observed | Active; Significant Inhibition Was Observed | Active | Active; Certain Degree Of Inhibition Was Observed | Active; Certain Degree Of Inhibition Was Observed | Active | Active; Certain Degree Of Inhibition Was Observed | Active | Active; Certain Degree Of Inhibition Was Observed | Active | Activity [26]: 0.7%; inhibition (Mitochondrial membrane [2]): Active; Activity (HepG2 [3]): Active; Activity (4T1 [4]): Active; inhibition (Mitochondrial membrane [20]): Active; solubility [27]: soluble; inhibition (Mitochondrial membrane [25]): Active; Significant Inhibition Was Observed
2 | CC1(C)C(/C=C/C=C/C=C/C=C2\N(CCCCS(=O)(=O)O)c3ccc4ccccc4c3C2(C)C)=[N+](CCCCS(=O)(=O)[O-])c2ccc3ccccc3c21 |  |  |  |  |  |  | Active |  |  | inactive |  |  |  |  |  |  |  |  |  |  | 
3 | COCCOCCOCCN1/C(=C/C=C/C=C/C=C/C2=[N+](CCOCCOCCOC)c3ccccc3C2(C)C)C(C)(C)c2ccccc21.[I-] | Active | Active | Active | Unstable | Active | Active; Exhibited Highest Activity Among Tested Compounds | Active | Active; Exhibited Highest Activity Among Tested Compounds | Active; Significant Inhibition Was Observed | Active | Active; Significant Inhibition Was Observed | Active; Significant Inhibition Was Observed | Active; Exhibited Highest Activity Among Tested Compounds | Active; Certain Degree Of Inhibition Was Observed | Active; Certain Degree Of Inhibition Was Observed | Active | Active; Certain Degree Of Inhibition Was Observed | Active | Active; Certain Degree Of Inhibition Was Observed | Active; Exhibited Highest Activity Among Tested Compounds | Activity [26]: 5.2%; inhibition (Mitochondrial membrane [2]): Active; inhibition (Mitochondrial membrane [20]): Active; Activity (4T1 [28]): Active; Compound Was Less Photo-Thermally Effective But Showed Stronger Cell-Killing Ability; inhibition (Mitochondrial membrane [25]): Active; Significant Inhibition Was Observed; Activity (HepG2 [29]): Active; Compound Was Less Photo-Thermally Effective But Showed Stronger Cell-Killing Ability

Now from value to molecule, other results behind:

Row | Drug uptake [9] | Drug uptake [10] | Drug uptake [12] | Stability [17] | Drug uptake [23] | Compound | Activity (4T1 [1]) | Activity [5] | Activity (4T1 [6]) | inhibition (Mitochondrial membrane [7]) | Activity [8] | inhibition (Mitochondrial membrane [11]) | inhibition (Mitochondrial membrane [13]) | Activity (HepG2 [14]) | inhibition (Mitochondrial membrane [15]) | inhibition (Mitochondrial membrane [16]) | Activity (4T1 [18]) | inhibition (Mitochondrial membrane [19]) | Activity (HepG2 [21]) | inhibition (Mitochondrial membrane [22]) | Activity (HepG2 [24]) | other results
4 | Active | Active | Active | Stable | Active | CN1/C(=C/C=C/C(C#N)=C/C=C/C2=[N+](C)c3ccccc3C2(C)C)C(C)(C)c2ccccc21.[I-] | Active | Active | Active | Active; Significant Inhibition Was Observed | Active | Active; Significant Inhibition Was Observed | Active; Significant Inhibition Was Observed | Active | Active; Certain Degree Of Inhibition Was Observed | Active; Certain Degree Of Inhibition Was Observed | Active | Active; Certain Degree Of Inhibition Was Observed | Active | Active; Certain Degree Of Inhibition Was Observed | Active | inhibition (Mitochondrial membrane [2]): Active; Activity (HepG2 [3]): Active; Activity (4T1 [4]): Active; inhibition (Mitochondrial membrane [20]): Active; inhibition (Mitochondrial membrane [25]): Active; Significant Inhibition Was Observed
5 | Active | Active | Active | Unstable | Active | CN1/C(=C/C=C/C=C/C=C/C2=[N+](C)c3ccccc3C2(C)C)C(C)(C)c2ccccc21.[I-] | Active | Active | Active | Active; Significant Inhibition Was Observed | Active | Active; Significant Inhibition Was Observed | Active; Significant Inhibition Was Observed | Active | Active; Certain Degree Of Inhibition Was Observed | Active; Certain Degree Of Inhibition Was Observed | Active | Active; Certain Degree Of Inhibition Was Observed | Active | Active; Certain Degree Of Inhibition Was Observed | Active | solubility [27]: Insoluble; Activity (4T1 [28]): inactive; inhibition (Mitochondrial membrane [25]): Active; Significant Inhibition Was Observed; Activity (HepG2 [29]): inactive
